# From ChEMBL document CHEMBL1201862, “PubChem BioAssay data set” (2004)
# Activity calls are given as the source filed them.
# Columns and labels:
# [1] = NIH-3T3 fibroblast cytotoxicity, dose response, cytotoxicity control, cell-based, fluorescence, Alamar Blue, secondary assay (AID 2327); type: functional;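 also: NIH-3T3 mouse fibroblasts cultured with fluconazole at 8 µg/mL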
# [2] = C. albicans growth with fluconazole, confirmation, fluorescence, retest (AID 2467); type: functional, cell-based
# [3] = biological target: T1, Serine/threonine-protein phosphatase (Candida dubliniensis (strain CD36 / CBS 7987 / NCPF 3949 / NRRLY-17841) (Yeast), UniProt B9W6M3); assay: calcineurin pathway inhibitors in yeast reporter, dose response, S. cerevisiae, CDRE-lacZ, luminescence, secondary (AID 2388); type: functional, cell-based;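 also: yeast reporter cells carrying a calcineurin-responsive lacZ construct stimulated with calcium chloride; luminescent beta-galactosidase reporter signal in whole cells rather than isolated phosphatase activity; potency for inhibition where a drop in reporter signal means calcineurin blockade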
# T1 sequence (B9W6M3 whole entry): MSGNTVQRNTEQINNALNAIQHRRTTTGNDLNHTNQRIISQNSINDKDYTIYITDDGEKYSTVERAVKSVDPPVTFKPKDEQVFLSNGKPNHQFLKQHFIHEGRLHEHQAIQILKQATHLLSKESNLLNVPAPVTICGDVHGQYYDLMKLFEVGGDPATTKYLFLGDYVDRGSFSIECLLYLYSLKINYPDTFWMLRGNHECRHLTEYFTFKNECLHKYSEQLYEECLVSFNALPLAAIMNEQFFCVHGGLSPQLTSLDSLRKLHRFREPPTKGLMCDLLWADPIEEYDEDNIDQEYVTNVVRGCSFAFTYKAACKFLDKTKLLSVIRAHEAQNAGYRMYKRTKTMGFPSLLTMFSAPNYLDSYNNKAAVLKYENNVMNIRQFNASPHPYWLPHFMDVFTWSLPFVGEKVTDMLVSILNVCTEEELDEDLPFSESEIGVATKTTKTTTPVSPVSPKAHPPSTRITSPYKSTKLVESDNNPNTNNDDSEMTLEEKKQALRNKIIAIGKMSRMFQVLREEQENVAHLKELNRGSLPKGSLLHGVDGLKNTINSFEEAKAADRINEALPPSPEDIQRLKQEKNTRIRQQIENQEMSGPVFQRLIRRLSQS
# Tumor necrosis factor = Tumor necrosis factor (Homo sapiens, UniProt P01375); assay: TNFa-triggered NF-kB activation inhibitors, SAR follow-up, cell-based, revised (AID 2337); type: functional
# Tumor necrosis factor, sequence (P01375 whole entry, the tested form may be a part): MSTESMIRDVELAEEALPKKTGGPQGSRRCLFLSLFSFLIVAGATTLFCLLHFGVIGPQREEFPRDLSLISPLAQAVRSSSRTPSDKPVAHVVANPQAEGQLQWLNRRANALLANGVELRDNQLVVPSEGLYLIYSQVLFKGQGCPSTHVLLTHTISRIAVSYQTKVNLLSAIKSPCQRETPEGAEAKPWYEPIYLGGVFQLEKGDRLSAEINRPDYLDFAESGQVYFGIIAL
# [4] = biological target: T2, Nucleotide-binding oligomerization domain-containing protein 1 (Homo sapiens, UniProt Q9Y239); assay: NOD1 signaling inhibitors, SAR follow-up, revised (AID 2333); type: functional
# T2 sequence (Q9Y239 whole entry): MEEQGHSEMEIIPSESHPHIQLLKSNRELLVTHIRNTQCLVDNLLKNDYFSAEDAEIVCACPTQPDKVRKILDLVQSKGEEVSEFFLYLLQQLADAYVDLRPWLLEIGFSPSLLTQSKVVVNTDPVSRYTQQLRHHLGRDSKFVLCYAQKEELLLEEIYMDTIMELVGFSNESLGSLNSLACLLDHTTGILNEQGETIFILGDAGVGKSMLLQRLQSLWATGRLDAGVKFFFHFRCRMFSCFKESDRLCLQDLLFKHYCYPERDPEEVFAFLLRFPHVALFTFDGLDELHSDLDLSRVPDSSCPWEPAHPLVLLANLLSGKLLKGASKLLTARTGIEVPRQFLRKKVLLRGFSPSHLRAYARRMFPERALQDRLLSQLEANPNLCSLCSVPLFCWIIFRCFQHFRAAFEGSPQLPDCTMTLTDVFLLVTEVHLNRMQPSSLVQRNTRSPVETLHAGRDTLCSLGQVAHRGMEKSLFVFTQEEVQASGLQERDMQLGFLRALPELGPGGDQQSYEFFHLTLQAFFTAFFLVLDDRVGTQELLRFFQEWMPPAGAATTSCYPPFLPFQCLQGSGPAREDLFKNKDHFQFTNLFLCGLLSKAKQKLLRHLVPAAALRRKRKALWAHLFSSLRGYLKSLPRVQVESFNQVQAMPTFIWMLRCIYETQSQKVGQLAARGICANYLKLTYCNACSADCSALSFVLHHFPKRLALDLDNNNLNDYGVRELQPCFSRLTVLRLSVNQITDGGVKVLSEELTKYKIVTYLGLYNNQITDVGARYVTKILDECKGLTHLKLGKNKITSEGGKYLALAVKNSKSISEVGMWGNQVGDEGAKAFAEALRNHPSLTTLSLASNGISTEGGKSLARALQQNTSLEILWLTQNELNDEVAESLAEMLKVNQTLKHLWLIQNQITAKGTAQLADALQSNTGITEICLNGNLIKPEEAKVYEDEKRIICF
# [5] = cytotoxicity in HEK-293T cells, dose response, cytotoxicity control for TCR NF-kB inhibitor project, luminescence, T-cell screen hits (AID 489026); type: functional, cell-based;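 also: cells exposed to compound about 14 hours before the viability readout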
# INS1 = assay: beta cell apoptosis inhibitors, cytokine rescue, dose response, luminescence, retest (AID 449756); type: functional, cell-based; conditions: Rattus norvegicus;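 also: cell death triggered by IL-1 beta plus TNF-alpha plus IFN-gamma mixture; protective hits raise ATP signal compared with cytokine alone wells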
# [6] = biological target: ATP-dependent molecular chaperone HSP82 (Candida albicans (strain WO-1) (Yeast), UniProt C4YTQ8); assay: loss of DOC-induced GRE-beta-galactosidase reporter signal, dose response, Hsp90 inhibitor project, S. cerevisiae, luminescence (AID 2400); type: functional, cell-based;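 also: beta-galactosidase luminescence from glucocorticoid response element reporter as proxy for Hsp90 function; inhibitor potency where signal loss means Hsp90 inhibition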
# ATP-dependent molecular chaperone HSP82, sequence (C4YTQ8 whole entry): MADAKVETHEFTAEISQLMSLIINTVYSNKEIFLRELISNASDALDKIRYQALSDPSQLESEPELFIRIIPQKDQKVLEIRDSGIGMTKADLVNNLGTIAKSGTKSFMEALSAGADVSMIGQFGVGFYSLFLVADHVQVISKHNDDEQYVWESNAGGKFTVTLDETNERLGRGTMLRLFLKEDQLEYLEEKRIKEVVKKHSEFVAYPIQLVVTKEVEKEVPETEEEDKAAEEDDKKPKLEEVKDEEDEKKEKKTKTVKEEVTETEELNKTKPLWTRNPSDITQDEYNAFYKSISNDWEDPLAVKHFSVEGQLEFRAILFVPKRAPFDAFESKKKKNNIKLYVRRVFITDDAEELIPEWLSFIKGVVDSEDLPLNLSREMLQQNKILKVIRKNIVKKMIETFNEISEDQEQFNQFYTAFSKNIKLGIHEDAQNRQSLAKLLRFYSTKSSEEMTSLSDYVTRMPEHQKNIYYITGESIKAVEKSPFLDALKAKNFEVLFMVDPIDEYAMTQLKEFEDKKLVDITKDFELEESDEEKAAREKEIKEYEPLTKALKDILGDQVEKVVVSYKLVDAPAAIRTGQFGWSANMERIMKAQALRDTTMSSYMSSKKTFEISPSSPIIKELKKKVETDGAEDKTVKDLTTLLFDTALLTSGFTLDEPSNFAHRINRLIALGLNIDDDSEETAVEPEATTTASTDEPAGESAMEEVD
# [7] = biological target: T3, COUP transcription factor 2 (Homo sapiens, UniProt P24468); assay: Luminescence-based cell-based high throughput dose response assay to identify inhibitors of COUP-TFII (NR2F2).; type: functional;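 also: HEK293 cells transiently cotransfected with COUP-TFII expression vector and reporter; luciferase reporter luminescence driven by COUP-TFII from the pX2-168 reporter plasmid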
# T3 sequence (P24468 whole entry): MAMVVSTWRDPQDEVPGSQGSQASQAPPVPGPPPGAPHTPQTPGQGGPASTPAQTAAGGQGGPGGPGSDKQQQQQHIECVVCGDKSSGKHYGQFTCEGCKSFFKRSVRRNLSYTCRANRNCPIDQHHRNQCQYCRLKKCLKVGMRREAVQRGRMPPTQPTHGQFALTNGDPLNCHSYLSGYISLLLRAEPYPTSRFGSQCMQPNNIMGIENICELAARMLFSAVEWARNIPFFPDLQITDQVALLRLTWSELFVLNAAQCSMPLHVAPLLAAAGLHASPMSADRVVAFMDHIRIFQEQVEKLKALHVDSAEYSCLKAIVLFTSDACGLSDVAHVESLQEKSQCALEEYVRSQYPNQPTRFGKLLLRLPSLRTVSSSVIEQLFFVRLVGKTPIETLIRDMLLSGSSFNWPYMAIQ
# HEK293 [8] = assay: cells; conditions: Homo sapiens
# [9] = biological target: T4, High affinity choline transporter 1 (Homo sapiens, UniProt Q9GZV3); assay: CHT inhibitors, dose response, cell-based, 5-point CRC, membrane potential dye (AID 504840); type: functional
# T4 sequence (Q9GZV3 whole entry): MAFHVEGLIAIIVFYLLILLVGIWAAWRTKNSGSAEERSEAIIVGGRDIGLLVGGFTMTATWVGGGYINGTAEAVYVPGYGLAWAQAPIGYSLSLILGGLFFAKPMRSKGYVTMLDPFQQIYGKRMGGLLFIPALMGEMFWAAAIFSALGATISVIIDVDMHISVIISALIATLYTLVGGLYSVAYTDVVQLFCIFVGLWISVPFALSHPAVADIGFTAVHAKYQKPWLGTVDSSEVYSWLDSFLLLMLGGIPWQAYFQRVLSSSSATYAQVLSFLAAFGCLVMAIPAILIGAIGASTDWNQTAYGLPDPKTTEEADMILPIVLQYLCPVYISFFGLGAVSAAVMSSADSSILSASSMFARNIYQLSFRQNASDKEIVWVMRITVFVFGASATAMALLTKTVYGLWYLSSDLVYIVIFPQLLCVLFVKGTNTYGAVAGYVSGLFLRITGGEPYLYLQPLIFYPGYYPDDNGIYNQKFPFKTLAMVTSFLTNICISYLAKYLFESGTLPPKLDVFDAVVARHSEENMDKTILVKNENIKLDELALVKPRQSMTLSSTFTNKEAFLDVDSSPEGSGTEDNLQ
# Escherichia coli = assay: microbe, parasite or virus in culture
# [10] = inhibitors of intracellular T. cruzi replication, confirmation, NIH3T3 host cells, beta-gal luminescence (AID 2044); type: functional, cell-based;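 also: intracellular parasites grown in NIH/3T3 mouse fibroblasts as host cells; luminescent beta-galactosidase reporter signal from transgenic T. cruzi replicating inside host cells; inhibitors lower the luminescence signal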
# [11] = cytotoxicity toward NIH3T3 fibroblasts, dose response, counter-screen, cell-based, ATP luminescence, mouse fibroblasts (AID 2010); type: functional;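 also: cells exposed to compound for about 90 hours before reading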
# [12] = biological target: T5, Microphthalmia-associated transcription factor (Homo sapiens, UniProt O75030); assay: TRPM1 promoter luciferase signal decrease, dose response, MITF inhibitor project, cell-based, SK-MEL-5, cherry-picked, set 3 (AID 493073); type: functional
# T5 sequence (O75030 whole entry): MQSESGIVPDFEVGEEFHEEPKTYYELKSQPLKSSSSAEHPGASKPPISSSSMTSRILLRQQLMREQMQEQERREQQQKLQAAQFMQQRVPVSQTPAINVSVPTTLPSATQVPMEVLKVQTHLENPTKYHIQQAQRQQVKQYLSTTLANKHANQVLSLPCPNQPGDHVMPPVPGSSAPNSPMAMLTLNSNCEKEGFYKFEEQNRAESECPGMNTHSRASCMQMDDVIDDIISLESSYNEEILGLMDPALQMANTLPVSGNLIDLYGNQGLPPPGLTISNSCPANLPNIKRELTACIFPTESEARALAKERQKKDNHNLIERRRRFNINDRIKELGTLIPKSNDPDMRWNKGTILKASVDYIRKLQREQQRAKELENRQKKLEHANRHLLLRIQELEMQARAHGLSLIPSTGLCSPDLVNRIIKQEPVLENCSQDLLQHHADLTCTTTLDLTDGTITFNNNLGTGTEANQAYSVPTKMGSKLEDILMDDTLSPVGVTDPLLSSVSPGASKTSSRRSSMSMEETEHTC
# [13] = biological target: T6, DNA repair protein RAD52 homolog (Homo sapiens, UniProt P43351); type: functional, biochemical
# T6 sequence (P43351 whole entry): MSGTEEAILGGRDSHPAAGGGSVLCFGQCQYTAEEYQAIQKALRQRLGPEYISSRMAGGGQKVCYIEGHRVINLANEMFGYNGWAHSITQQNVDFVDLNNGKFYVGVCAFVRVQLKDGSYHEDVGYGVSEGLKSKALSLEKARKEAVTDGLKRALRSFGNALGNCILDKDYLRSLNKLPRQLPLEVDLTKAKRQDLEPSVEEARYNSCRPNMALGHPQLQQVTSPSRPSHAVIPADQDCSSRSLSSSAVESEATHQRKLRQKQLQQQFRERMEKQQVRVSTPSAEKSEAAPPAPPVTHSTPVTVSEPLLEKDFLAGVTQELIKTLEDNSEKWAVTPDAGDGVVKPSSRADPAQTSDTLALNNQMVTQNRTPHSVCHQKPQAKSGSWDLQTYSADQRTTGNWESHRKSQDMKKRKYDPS
# HEK293 [14] = assay: NOD1 signaling inhibitors, primary screen, cell-based, luminescence, uHTS (AID 1578); type: functional; conditions: Homo sapiens
# HEK293 [15] = assay: cells; type: functional, cell-based; conditions: Homo sapiens
# [16] = biological target: T7, Heat shock factor protein 1 (Mus musculus, UniProt P38532); assay: inhibition of MG132-induced HSE-luciferase signal, confirmation, cell-based, NIH3T3, luminescence, dose retest (AID 2382); type: functional;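 also: NIH3T3 fibroblasts with HSF1-driven luciferase reporter stressed by proteasome inhibitor MG132; luminescence from HSF1-driven luciferase expression after 8 hours of MG132 stress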
# T7 sequence (P38532 whole entry): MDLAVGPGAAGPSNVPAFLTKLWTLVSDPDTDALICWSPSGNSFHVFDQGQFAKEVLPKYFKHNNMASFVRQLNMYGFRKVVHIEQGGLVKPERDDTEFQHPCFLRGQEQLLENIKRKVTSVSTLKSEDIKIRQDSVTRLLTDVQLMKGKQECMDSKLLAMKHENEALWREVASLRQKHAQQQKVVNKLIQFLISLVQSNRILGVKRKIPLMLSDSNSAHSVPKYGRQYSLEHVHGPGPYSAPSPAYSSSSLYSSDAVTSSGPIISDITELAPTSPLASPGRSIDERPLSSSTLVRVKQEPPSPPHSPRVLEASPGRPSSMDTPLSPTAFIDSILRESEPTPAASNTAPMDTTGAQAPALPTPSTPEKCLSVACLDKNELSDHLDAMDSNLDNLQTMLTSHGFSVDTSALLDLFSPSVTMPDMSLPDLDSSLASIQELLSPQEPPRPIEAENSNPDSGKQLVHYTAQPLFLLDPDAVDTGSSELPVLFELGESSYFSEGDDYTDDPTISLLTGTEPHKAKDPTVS
# HEK293 [17] = assay: cells; type: functional, cell-based; conditions: Homo sapiens; remark: listed apart in the source
# [18] = biological target: Nucleotide-binding oligomerization domain-containing protein 2 (Homo sapiens, UniProt Q9HC29); assay: NOD2 signaling inhibitors, cell-based, luminescence, uHTS, HEK293 (AID 1566); type: functional
# Nucleotide-binding oligomerization domain-containing protein 2, sequence (Q9HC29 whole entry, the tested form may be a part): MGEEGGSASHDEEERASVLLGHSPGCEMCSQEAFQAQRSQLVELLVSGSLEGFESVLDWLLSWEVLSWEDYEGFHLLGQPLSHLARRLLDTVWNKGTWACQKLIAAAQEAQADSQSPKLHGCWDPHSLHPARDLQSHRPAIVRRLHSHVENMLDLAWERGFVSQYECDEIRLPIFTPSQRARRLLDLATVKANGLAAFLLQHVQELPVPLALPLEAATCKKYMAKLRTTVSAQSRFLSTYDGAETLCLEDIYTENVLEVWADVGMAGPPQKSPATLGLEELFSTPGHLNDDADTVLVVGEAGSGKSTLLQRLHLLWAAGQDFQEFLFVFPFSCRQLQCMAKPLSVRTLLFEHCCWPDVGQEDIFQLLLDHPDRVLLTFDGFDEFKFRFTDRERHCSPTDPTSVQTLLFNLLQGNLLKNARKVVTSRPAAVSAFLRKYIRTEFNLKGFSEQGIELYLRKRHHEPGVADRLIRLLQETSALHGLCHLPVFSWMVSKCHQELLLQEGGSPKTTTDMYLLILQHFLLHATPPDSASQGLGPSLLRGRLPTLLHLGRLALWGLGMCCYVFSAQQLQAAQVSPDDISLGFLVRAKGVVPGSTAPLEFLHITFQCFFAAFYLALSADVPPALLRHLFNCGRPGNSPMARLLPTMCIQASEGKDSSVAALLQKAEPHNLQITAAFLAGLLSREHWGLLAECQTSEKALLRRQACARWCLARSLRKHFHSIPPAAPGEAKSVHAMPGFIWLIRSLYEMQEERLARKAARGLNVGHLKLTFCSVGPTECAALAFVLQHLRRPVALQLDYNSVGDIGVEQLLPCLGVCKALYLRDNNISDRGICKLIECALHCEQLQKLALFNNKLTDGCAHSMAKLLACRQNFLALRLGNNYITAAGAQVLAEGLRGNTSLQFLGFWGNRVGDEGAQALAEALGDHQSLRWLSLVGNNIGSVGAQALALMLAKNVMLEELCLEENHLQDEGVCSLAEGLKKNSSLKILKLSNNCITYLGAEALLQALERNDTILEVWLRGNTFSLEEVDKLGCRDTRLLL
# HEK293 [19] = assay: NOD2 signaling inhibitors in MDP-stimulated cells, cell-based, uHTS, luminescence (AID 2001); type: functional; conditions: Homo sapiens
# HEK293 [20] = assay: cells; type: functional, cell-based; conditions: Homo sapiens; remark: listed apart in the source
smiles,measurement,setting,value
CCc1cc(C(=O)NC2CCCc3c2cnn3-c2cccc(C)c2C)n(C)n1 (stereo not drawn),EC50,[1],> 150 µM (inactive)
same,EC50,[2],0.142 µM (active)
same,EC50,[3],> 180 µM (inactive)
same,IC50,Tumor necrosis factor,0.179 µM (active)
same,IC50,[4],0.0983 µM (active)
same,IC50,[5],> 80 µM (inactive)
same,AC50,INS1,< 0.195 µM (active)
same,EC50,[6],> 150 µM (inactive)
same,IC50,[7],> 0.117 µM (active)
same,IC50,HEK293 [8],> 20 µM (inactive)
CCCn1c2ccccc2c2cnn(CC(=O)NCCCN3CCCC(C)C3)c(=O)c21 (stereo not drawn),IC50,[9],15.1 µM (active)
Cc1ccc2c(CC(=O)Nc3ccc(N4CCN(C)CC4)cc3C)coc2c1,AC50,Escherichia coli,43.5 µM (active)
COc1ccc(C(=O)Nc2cnn(Cc3ccc(Cl)cc3)c2)cc1OC,AC50,Escherichia coli,96.5 µM (active)
Cc1cc(C)c2nc3nc(C)cc(C)c3c(N)c2c1,EC50,[10],1.5 µM (active)
same,EC50,[11],> 60 µM (not active)
same,AC50,[12],5.72 µM (active)
same,AC50,[13],1.12 µM (active)
Cc1ccc2oc(N=C(N)NC(=O)C(C)(C)C)nc2c1,EC50,HEK293 [14],< 0.31 µM (inactive)
same,IC50,HEK293 [15],< 0.312 µM (active)
same,EC50,[16],< 0.16 µM (active)
same,IC50,HEK293 [17],> 20 µM (inactive)
same,EC50,[18],0.01 µM (active)
same,IC50,HEK293 [19],4.71 µM (active)
same,IC50,HEK293 [20],> 20 µM (inactive)
same,IC50,Tumor necrosis factor,< 0.0391 µM (active)
same,IC50,[4],0.0949 µM (active)
same,IC50,[5],> 80 µM (inactive)
same,IC50,HEK293 [8],> 20 µM (inactive)
